From US20230263712A1, “AN ORAL CARE ANTIMICROBIAL COMPOSITION, PROCESS FOR PREPARING THE SAME AND METHOD OF USE THEREOF” (ISP INVESTMENTS LLC, priority 2020, published 2023)
Read-outs that look alike come from different tables or passages of the source.

Tested on: Streptococcus mutans UA159
Assay: Checkerboard microplate synergy assay (MIC, Synergy Index by the Kull method)
Assay type: cell-based
Details: for HPB Qa: MIC of compound A (HPB) when used in combination with compound B: HPB concentration in the combination with the labelled compound B; for SI index (Synergy Index = Qa/QA + Qb/QB): combination of HPB (raspberry ketone) with the labelled compound B, SI <1 synergistic
Method: The synergistic antimicrobial effect was determined using the commonly accepted method described by Kull […]. and Mayer, R. L. 1961. Applied Microbiology, 9:538-541 Brief description of the assay: Standard checkerboard approach was used to make all the dilutions. HPB (compound A) solution was prepared in DMSO and then serially diluted using a 96-well dilution plate. Automated liquid handler was then used to stamp multiple assay plates out of this dilution plate. Each well of the assay plate was then supplemented with a predetermined concentration of the second antimicrobial (compound B). The final concentration of DMSO was kept constant across the plate for each assay, not exceeding 3% (w/w). Then, S. mutans cell suspension in Todd Hewitt Broth supplemented with yeast extract (THYEB) was added to the appropriate wells of the assay plate with the final cell density being 10^6 cfu/ml. The assay plates were incubated for 48 hours at 37° C. in the atmosphere containing 5% CO2 prior to being evaluated. The lowest concentration of each compound (or a mixture of the two compounds) to inhibit visible growth was taken as the minimum inhibitory concentration (MIC). The MIC was taken as the end point of activity. End points for the combination of compound A (HPB) and compound B were then compared to the end points for each compound being used individually.

[1] = S. mutans, THYEB, 48 hours at 37° C., 5% CO2
[2] = Streptococcus mutans, UA159, S. mutans, THYEB, 48 hours at 37° C., 5% CO2, alone, read-out: Compound B QB: MIC of compound B acting alone

SMILES | HPB Qa: MIC of compound A (HPB) when used in combination with compound B [1] | Compound B Qb: MIC of compound B when used in combination with compound A (HPB) [1] | MIC [2] | SI index (Synergy Index = Qa/QA + Qb/QB) (S. mutans) | also measured
N=C(NCCCCCCNC(=N)NC(=N)Nc1ccc(Cl)cc1)NC(=N)Nc1ccc(Cl)cc1.O=C(O)[C@H](O)[C@@H](O)[C@H](O)[C@H](O)CO.O=C(O)[C@H](O)[C@@H](O)[C@H](O)[C@H](O)CO [Chlorhexidine digluconate] | 4,000 ppm | 0.4 ppm |  | ≤0.75 | Compound B QB: MIC of compound B acting alone (S. mutans, THYEB, 48 hours at 37° C., 5% CO2, alone): 1.6 ppm
CC(=O)CCc1ccc(O)cc1 [HPB, 4-(4-hydroxyphenyl) butan-2-one] |  |  |  |  | MIC (Streptococcus mutans, UA159, S. mutans, THYEB, 48 hours at 37° C., 5% CO2, alone, read-out: HPB QA: MIC of compound A (HPB) acting alone): ≥ 8000 mg/L
Cc1cc(O)ccc1C(C)C [Isopropyl Methylphenol (IPMP), 4-isopropyl-3-methyl phenol] | 125 ppm | 250 ppm | 500 mg/L | ≤0.5016 | SI index (Synergy Index = Qa/QA + Qb/QB) (S. mutans, listed as IPMP): ≤ 0.5016
CC12CCC(CC1)C(C)(C)O2 [eucalyptol] |  |  |  |  | MIC (alone, even when solubilized with 2% of Pluronic F-127): > 2%; Synergy with raspberry ketone (HPB) (standard synergy assay vs S. mutans): not detected

More lines, main results first:

HPB Qa: MIC of compound A (HPB) when used in combination with compound B [1] | Compound B Qb: MIC of compound B when used in combination with compound A (HPB) [1] | MIC [2] | SMILES | SI index (Synergy Index = Qa/QA + Qb/QB) (S. mutans) | also measured
4,000 ppm | 1,000 ppm | ≥ 4000 mg/L | CC1CCC(C(C)C)C(O)C1 (centres unmarked) [Menthol] |  | 
4,000 ppm | 15.6 ppm | 125 mg/L | Cc1ccc(C(C)C)c(O)c1 [Thymol] | ≤0.625 | SI index (Synergy Index = Qa/QA + Qb/QB) (S. mutans, listed as thymol): ≤ 0.625
